Patent publication US11208405B2, “Pyrrole derivatives as PLK1 inhibitors” (SENTINEL ONCOLOGY LIMITED, priority 2017, dated 2021)
Counter-ions that a name gives are not always drawn.

What was measured:
HeLa cells = assay: Arresting cells in mitosis (Mitotic Index, phosphorylated Histone H3 immunofluorescence); assay type: cell-based; settings: HeLa cell line, 24 hours; for EC50: Homo sapiens, Mitotic Index, read-out: EC50
Experimental: Assay to Measure the Effects of Compounds of the Invention on Arresting Cells in Mitosis
Inhibiting the ability of PLK1 to bind to its phosphopeptide binding partners through the PBD causes cells to arrest in mitosis. Experimentally, this is measured by assessing the number of cells which are in mitosis at a certain time after treatment with a PLK1-PBD inhibitor by immunofluorescent detection of phosphorylated Histone H3 (pH3), a marker which is only present in mitotic cells. PLK1-PBD inhibitors are expected to cause a dose-dependent increase in pH3-positive cells, which is reported as Mitotic Index (MI)—the percentage of cells which, at a given time, are positive for this mitotic mark. The following protocol has been used to measure MI: • 1. Plate HeLa cells at 10,000/well in 100 μL/well in clear flat-bottom 96-well plates and incubate overnight. • 2. Immediately prior to treatment, dilute compounds in medium in a 96-well round-bottom plate. Make up all compounds at 5 times final desired concentration on cells, and serially dilute 1:2 across the plate ensuring that there is 100 μL of each concentration (start with 200 μl of the top concentration on the left of the plate). […] Treat cells by adding 25 μL from the compound dilution plate to triplicate wells. • 4. Incubate cells with compound for 24 hours. • 5. After 24 hours, fixation and staining is carried out as follows: • 6. Dilute 37% formaldehyde in PBS to give a 12.95% solution by adding 3.5 mL formaldehyde to 6.5 mL of PBS. • 7. Add 50 μL of formaldehyde fixation solution directly to each well of cells (which already contain 125 μL medium). • 8. Incubate at room temp for 10 minutes. • 9. Remove fixative and add 100 μL/well PBS+0.1% Triton X-100 for 10 minutes. • 10. Aspirate and add 100 μL/well PBS+1% BSA. • 11. Aspirate and add 50 μL/well of primary antibody (anti-PH3 [1:2000]/anti-MPM2 [1:1000]) diluted in PBS+1% BSA. Incubate for 1 hour. • 12. Wash×2 with 100 μL/well PBS+1% BSA. • 13. Add 50 μL/well of secondary antibody plus Hoechst stain (anti-rabbit Alexafluor 488 [1:500]; anti-mouse Alexafluor 546 [1:500]+Hoechst 33342 [1:2500 final concentration=4 μg/mL])diluted in PBS+1% BSA. Incubate for 1 hour. • 14. Wash twice with 100 μL/well PBS+1% BSA. • 15. Aspirate and add 100 μL/well PBS. Plates can be stored at 4° C. in PBS for several weeks before scanning on the Cellomics Arrayscan. […] Scan on Cellomics using Target Activation Bioapplication. • 17. MI data emerging from the Cellomic Bioapplication can be used to plot MI versus compound concentration, and subsequently used to generate an EC50 value for each compound using an appropriate graphing/curve-fitting package such as GraphPad Prism.

HCT116 cells = assay: Effects on HCT116 colorectal cancer cell viability (cell titre blue, 72 hours); assay type: cell-based; settings: Homo sapiens, HCT-116, HCT116 cell line
Experimental: Assay to Measure the Effects of Compounds of the Invention on HCT116 Colorectal Cancer Cell Viability
The following protocol was used to measure the effects of compounds of the invention on HCT116 cell viability.
1. HCT116 cells were grown in RPM11640 media supplemented with Glutamax and 10% FBS in a 37° C./5% CO2 incubator.
2. Growing culture of HCT116 cells were trypsinised, counted and diluted to give 10,000 cells/mL in an appropriate volume, allowing at least 6 mL of cells per plate.
3. 200 μL of PBS were added to all the outer wells of a flat-bottomed (8×12) 96-well TC plate. 100 μL of media were added only to wells in column 11 of the plates (these wells provided a blank for the cell titre blue assay). Two compounds were assayed on each plate.
4. 100 ul of 10,000 cells/mL HCT116s were plated in rows B-G of each plate.
5. The cells were incubated (37° C. 5% CO2) for 24 hours before treating with compounds.
6. An 8 mM compound stock in DMSO was prepared for all compounds to be tested. 2.5 μL of the compound stock was added to 1000 μL growth medium in a 96-well deep well block and serial dilutions were prepared across the plate by transferring 500 μL into wells containing 500 μL growth medium+0.25% DMSO to give eight concentrations of compound (this ensured a constant amount of DMSO at all concentrations of compound). When making up growth medium+DMSO, an amount of 5 ml was allowed per compound to be diluted.
7. 3 rows of cells were treated with 100 μL/well from each row on the dilution plate so that each cell plate is treated with a single compound. This gave a final volume in all wells of 200 μL and a titration of compound from a final concentration of 10 uM down to 78 nM.
8. The cells were incubated (37° C. 5% CO2) for 72 hours.
9. 5 ul cell titre blue reagent (Promega) were added to all wells except the edge wells (which contain PBS only) and incubated (37° C. 5% CO2) for 2.5-3 hours.
10. Fluorescence was measured on a suitable plate reader using a 530-570 nm filter set for excitation and a 580-620 nm filter set for fluorescence emission.
11. Data were analysed using an appropriate graphing package (such as GraphPad Prism). Data were expressed as the concentration of compound causing a 50% inhibition of cell viability or GI50.

| SMILES | % mitotic cells (HeLa cells) | EC50 (HeLa cells) | GI50 (HCT116 cells) |
| --- | --- | --- | --- |
| CN(C)CCNC(=O)c1cccc(-c2ccc(-c3ccccc3)n2-c2ccccc2C(F)(F)F)c1 [Example 3, hydrochloride] | 65% | 1580 nM |  |
| CN(C)CCNC(=O)c1cccc(-c2ccc(-c3ccc(Br)cc3)n2-c2ccc(Cl)cc2C(F)(F)F)c1 [Example 4, hydrochloride] | 65% | 550 nM |  |
| CN(C)CCNC(=O)c1cccc(-c2ccc(-c3ccc(Br)cc3)n2-c2cnccc2C(F)(F)F)c1 [Example 6] | 86% | 660 nM | 200 nM |
| CN(C)Cc1cccc(-c2ccc(-c3ccc(Br)cc3)n2-c2ccccc2C(F)(F)F)c1 [Example 7, 1-[3-[5-(4-bromophenyl)-1-[2-(trifluoromethyl)phenyl]pyrrol-2-yl]phenyl]-N,N-dimethyl-methanamine Hydrochloride] | 75% | 2200 nM | 1060 nM |
| CN1CCC(NC(=O)c2cccc(-c3ccc(-c4ccc(Br)cc4)n3-c3ccccc3C(F)(F)F)c2)C1 (centres unmarked) [Example 14, hydrochloride] | 68% | 830 nM |  |
| CN(C)CCCOc1cccc(-c2ccc(-c3ccc(Br)cc3)n2-c2ccccc2C(F)(F)F)c1 [Example 17, 3-[3-[5-(4-Bromophenyl)-1-[2-(trifluoromethyl)phenyl]pyrrol-2-yl]phenoxy]-N,N-dimethyl-propan-1-amine Hydrochloride] | 65% | 1450 nM |  |
| CN(C)CCNCc1cccc(-c2ccc(-c3ccc(Br)cc3)n2-c2ccccc2C(F)(F)F)c1 [Example 18, hydrochloride] | 67% | 1640 nM |  |
| CN(C)CCNC(=O)c1ccc(-c2ccc(-c3ccc(Cl)cc3)n2-c2cccc(C(F)(F)F)c2)cc1 [Example 77, hydrochloride] |  |  | 3630 nM |
| CN(C)CCCNC(=O)c1ccc(-c2ccc(-c3ccc(Cl)cc3)n2-c2cccc(C(F)(F)F)c2)cc1 [Example 78, hydrochloride] |  |  | 2130 nM |
| CN(C)CCNC(=O)c1ccc(-c2ccc(-c3ccc(Cl)cc3)n2-c2ncccc2C(F)(F)F)cc1 [Example 79, hydrochloride] |  |  | 3830 nM |
| CN(C)CCCNC(=O)c1ccc(-c2ccc(-c3ccc(Cl)cc3)n2-c2ncccc2C(F)(F)F)cc1 [Example 80, hydrochloride] |  |  | 3920 nM |
| O=C(NCCN1CCOCC1)c1ccc(-c2ccc(-c3ccc(Cl)cc3)n2-c2cnccc2C(F)(F)F)cc1 [Example 81, hydrochloride] |  |  | 80 nM |
| CN(C)CCN(C)C(=O)c1ccc(-c2ccc(-c3ccc(Cl)cc3)n2-c2ccccc2C(F)(F)F)cc1 [Example 83, hydrochloride] |  |  | 60 nM |
| O=C(c1ccc(-c2ccc(-c3ccc(Cl)cc3)n2-c2ccccc2C(F)(F)F)cc1)N1CCNCC1 [Example 84, hydrochloride] |  |  | 190 nM |
| CN1CCN(C(=O)c2ccc(-c3ccc(-c4ccc(Cl)cc4)n3-c3ccccc3C(F)(F)F)cc2)CC1 [Example 85, hydrochloride] |  |  | 490 nM |
| COCCNC(=O)c1ccc(-c2ccc(-c3ccc(Cl)cc3)n2-c2ccccc2C(F)(F)F)cc1 [Example 86, 4-[5-(4-chlorophenyl)-1-[2-(trifluoromethyl)phenyl]pyrrol-2-yl]-N-(2-methoxyethyl)benzamide] |  |  | 340 nM |
| CN1CCN(CCNC(=O)c2ccc(-c3ccc(-c4ccc(Cl)cc4)n3-c3ccccc3C(F)(F)F)cc2)CC1 [Example 88, hydrochloride] |  |  | 250 nM |
| CN(C)CCNC(=O)c1ccc(-c2ccc(-c3ccc(Cl)cc3)n2-c2cnccc2C(F)(F)F)c(F)c1 [Example 89, hydrochloride] |  |  | 1360 nM |

| SMILES | % mitotic cells (HeLa cells) | EC50 (HeLa cells) | GI50 (HCT116 cells) |
| --- | --- | --- | --- |
| CN(C)CCNC(=O)Nc1ccc(-c2ccc(-c3ccc(Cl)cc3)n2-c2ccccc2C(F)(F)F)cc1 [Example 90, 1-[4-[5-(4-Chlorophenyl)-1-[2-(trifluoromethyl)phenyl]pyrrol-2-yl]phenyl]-3-[2-(dimethylamino)-ethyl]urea Hydrochloride] |  |  | 500 nM |
| CN(C)CCNC(=O)c1ccc(-c2onc(-c3ccc(Cl)cc3)c2-c2ccccc2C(F)(F)F)cc1 [Example 92, Hydrochloride] |  |  | 30 nM |
| CN(C)CCNC(=O)c1ccc(-c2[nH]nc(-c3ccc(Cl)cc3)c2-c2ccccc2C(F)(F)F)cc1 [Example 93, 4-[3-(4-chlorophenyl)-4-[2-(trifluoromethyl)phenyl]-1H-pyrazol-5-yl]-N-[2-(dimethylamino)ethyl] Benzamide Hydrochloride] |  |  | 260 nM |
| NCCNC(=O)c1ccc(-c2ccc(-c3ccc(Cl)cc3)n2-c2ccccc2C(F)(F)F)cc1 [Example 94, hydrochloride] |  |  | 50 nM |
| O=C(NCCN1CCOCC1)c1ccc(-c2ccc(-c3ccc(Cl)cc3)n2-c2ccccc2C(F)(F)F)cc1 [Example 95, hydrochloride] |  |  | 80 nM |
| O=C(NCCN[C@H]1CCOC1)c1ccc(-c2ccc(-c3ccc(Cl)cc3)n2-c2cnccc2C(F)(F)F)cc1 [Example 96] |  |  | 30 nM |
| CN(C)CCNC(=O)c1ccc(-c2ccc(-c3ccc(Cl)cc3)n2-c2ccc(F)cc2C(F)(F)F)cc1 [Example 97, hydrochloride] |  |  | 20 nM |
| CN(C)CCNC(=O)c1ccc(-c2ccc(-c3ccc(Cl)cc3)n2-c2ccc(Cl)cc2C(F)(F)F)cc1 [Example 98, hydrochloride] |  |  | 20 nM |
| CN(C)CCNC(=O)c1ccc(-c2ccc(-c3ccc(Cl)cc3)n2-c2ccccc2C(F)(F)F)s1 [Example 99, hydrochloride] |  |  | 40 nM |
| O=C(Cc1ccc(-c2ccc(-c3ccc(Cl)cc3)n2-c2ccccc2C(F)(F)F)cc1)NCCN1CCOCC1 [Example 100, hydrochloride] |  |  | 130 nM |
| O=C(Cc1ccc(-c2ccc(-c3ccc(Cl)cc3)n2-c2ccccc2C(F)(F)F)cc1)NCCN1CCNCC1 [Example 101, hydrochloride] |  |  | 60 nM |
| O=C(c1cccc(-c2ccc(-c3ccc(Br)cc3)n2-c2ccccc2C(F)(F)F)c1)N1CCC(Cc2cccnc2)CC1 [Example 102, hydrochloride] |  |  | 380 nM |
| C[C@@H](CNC(=O)c1ccc(-c2ccc(-c3ccc(Cl)cc3)n2-c2ccccc2C(F)(F)F)cc1)N(C)C [Example 103] |  |  | 40 nM |
| O=C(NCCN1CCOCC1)c1ccc(-n2ncc(-c3ccc(Cl)cc3)c2-c2ccccc2C(F)(F)F)cc1 [Example 104, hydrochloride] |  |  | 150 nM |
| CN(C)CCCNC(=O)c1ccc(-n2ncc(-c3ccc(Cl)cc3)c2-c2ccccc2C(F)(F)F)cc1 [Example 105, hydrochloride] |  |  | 100 nM |
| CN(C)CCNC(=O)c1ccc(-n2ncc(-c3ccc(F)cc3)c2-c2ccccc2C(F)(F)F)cc1 [Example 106, hydrochloride] |  |  | 80 nM |
| CN(C)CCNC(=O)C(C)(C)c1ccc(-c2ccc(-c3ccc(Cl)cc3)n2-c2ccccc2C(F)(F)F)cc1 [Example 107, hydrochloride] |  |  | 160 nM |
